Measured values as given in PubChem BioAssay (NCI).
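Abbreviation: GI50, concentration required for 50% inhibition of growth. TGI marks complete inhibition of growth.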

Legend:
Experiment in all cases: NCI anticancer screen, dose series, 384-well format
LOX IMVI melanoma = system: LOX IMVI melanoma
OVCAR-3 ovarian = system: OVCAR-3 ovarian
IGROV1 ovarian = system: IGROV1 ovarian
SW-620 colon = system: SW-620 colon
SR leukemia = system: SR leukemia
MALME-3M melanoma = system: MALME-3M melanoma
SK-OV-3 ovarian = system: SK-OV-3 ovarian
HCC-2998 colon = system: HCC-2998 colon
MCF7 breast = system: MCF7 breast
M14 melanoma = system: M14 melanoma
RXF 393 renal = system: RXF 393 renal
ACHN renal = system: ACHN renal
UACC-62 melanoma = system: UACC-62 melanoma
K-562 leukemia = system: K-562 leukemia
COLO 205 colon = system: COLO 205 colon
DU-145 prostate = system: DU-145 prostate
NCI-H522 lung = system: NCI-H522 lung
MDA-MB-231 breast = system: MDA-MB-231 breast
SF-539 CNS = system: SF-539 CNS
HCT-116 colon = system: HCT-116 colon
SK-MEL-2 melanoma = system: SK-MEL-2 melanoma
HCT-15 colon = system: HCT-15 colon
HL-60(TB) leukemia = system: HL-60(TB) leukemia
NCI-H460 NSCLC = system: NCI-H460 NSCLC
NCI/ADR-RES ovarian = system: NCI/ADR-RES ovarian
CCRF-CEM leukemia = system: CCRF-CEM leukemia
TK-10 renal = system: TK-10 renal
OVCAR-8 ovarian = system: OVCAR-8 ovarian
SF-295 CNS = system: SF-295 CNS
UO-31 renal = system: UO-31 renal
MOLT-4 leukemia = system: MOLT-4 leukemia
UACC-257 melanoma = system: UACC-257 melanoma
MDA-MB-468 breast = system: MDA-MB-468 breast
KM12 colon = system: KM12 colon
CAKI-1 renal = system: CAKI-1 renal
786-0 renal = system: 786-0 renal
SNB-19 CNS = system: SNB-19 CNS
OVCAR-5 ovarian = system: OVCAR-5 ovarian
NCI-H226 lung = system: NCI-H226 lung
MDA-MB-435 melanoma = system: MDA-MB-435 melanoma
SK-MEL-28 melanoma = system: SK-MEL-28 melanoma
PC-3 prostate = system: PC-3 prostate
NCI-H23 lung = system: NCI-H23 lung
T-47D breast = system: T-47D breast
HOP-92 NSCLC = system: HOP-92 NSCLC
OVCAR-4 ovarian = system: OVCAR-4 ovarian
A549 NSCLC = system: A549 NSCLC
HT29 colon = system: HT29 colon
RPMI-8226 leukemia = system: RPMI-8226 leukemia
SF-268 CNS = system: SF-268 CNS
A498 renal = system: A498 renal
NCI-H322M lung = system: NCI-H322M lung
SK-MEL-5 melanoma = system: SK-MEL-5 melanoma
SN12C renal = system: SN12C renal
U251 glioblastoma = system: U251 glioblastoma

For `CCc1cc(Nc2nccc(-c3c(-c4ccc(OC)c(C(=O)Nc5c(F)cccc5F)c4)nc4ccccn34)n2)c(OC)cc1N1CCC(N2CCN(S(C)(=O)=O)CC2)CC1`, the GI50 (LOX IMVI melanoma) was > 100 µM, the TGI (LOX IMVI melanoma) was > 100 µM and the GI50 (OVCAR-3 ovarian) was > 100 µM. For the same molecule, the TGI (OVCAR-3 ovarian) was > 100 µM, the GI50 (IGROV1 ovarian) was > 100 µM and the TGI (IGROV1 ovarian) was > 100 µM. For the same molecule, the GI50 (SW-620 colon) was > 100 µM, the TGI (SW-620 colon) was > 100 µM and the GI50 (SR leukemia) was 0.932 µM. The TGI (SR leukemia) was > 100 µM, the GI50 (MALME-3M melanoma) was > 100 µM and the TGI (MALME-3M melanoma) was > 100 µM. For the same molecule, the GI50 (SK-OV-3 ovarian) was > 100 µM, the TGI (SK-OV-3 ovarian) was > 100 µM and the GI50 (HCC-2998 colon) was > 100 µM. The TGI (HCC-2998 colon) was > 100 µM, the GI50 (MCF7 breast) was > 100 µM and the TGI (MCF7 breast) was > 100 µM. For the same molecule, the GI50 (M14 melanoma) was > 100 µM, the TGI (M14 melanoma) was > 100 µM and the GI50 (RXF 393 renal) was 0.75 µM. For the same molecule, the TGI (RXF 393 renal) was > 100 µM, the GI50 (ACHN renal) was > 100 µM and the TGI (ACHN renal) was > 100 µM. The GI50 (UACC-62 melanoma) was > 100 µM, the TGI (UACC-62 melanoma) was > 100 µM and the GI50 (K-562 leukemia) was > 100 µM. The TGI (K-562 leukemia) was > 100 µM, the GI50 (COLO 205 colon) was > 100 µM and the TGI (COLO 205 colon) was > 100 µM. The GI50 (DU-145 prostate) was > 100 µM, the TGI (DU-145 prostate) was > 100 µM and the GI50 (NCI-H522 lung) was > 100 µM. The TGI (NCI-H522 lung) was > 100 µM, the GI50 (MDA-MB-231 breast) was 18.6 µM and the TGI (MDA-MB-231 breast) was > 100 µM. The GI50 (SF-539 CNS) was > 100 µM, the TGI (SF-539 CNS) was > 100 µM and the GI50 (HCT-116 colon) was > 100 µM. The TGI (HCT-116 colon) was > 100 µM, the GI50 (SK-MEL-2 melanoma) was > 100 µM and the TGI (SK-MEL-2 melanoma) was > 100 µM. For the same molecule, the GI50 (HCT-15 colon) was > 100 µM, the TGI (HCT-15 colon) was > 100 µM and the GI50 (HL-60(TB) leukemia) was > 100 µM. The TGI (HL-60(TB) leukemia) was > 100 µM, the GI50 (NCI-H460 NSCLC) was > 100 µM and the TGI (NCI-H460 NSCLC) was > 100 µM. The GI50 (NCI/ADR-RES ovarian) was > 100 µM, the TGI (NCI/ADR-RES ovarian) was > 100 µM and the GI50 (CCRF-CEM leukemia) was > 100 µM. For the same molecule, the TGI (CCRF-CEM leukemia) was > 100 µM, the GI50 (TK-10 renal) was > 100 µM and the TGI (TK-10 renal) was > 100 µM. For the same molecule, the GI50 (OVCAR-8 ovarian) was 1.79 µM, the TGI (OVCAR-8 ovarian) was > 100 µM and the GI50 (SF-295 CNS) was > 100 µM. For the same molecule, the TGI (SF-295 CNS) was > 100 µM, the GI50 (UO-31 renal) was > 100 µM and the TGI (UO-31 renal) was > 100 µM. For the same molecule, the GI50 (MOLT-4 leukemia) was 0.645 µM, the TGI (MOLT-4 leukemia) was > 100 µM and the GI50 (UACC-257 melanoma) was > 100 µM. The TGI (UACC-257 melanoma) was > 100 µM, the GI50 (MDA-MB-468 breast) was 0.935 µM and the TGI (MDA-MB-468 breast) was > 100 µM. The GI50 (KM12 colon) was > 100 µM, the TGI (KM12 colon) was > 100 µM and the GI50 (CAKI-1 renal) was > 100 µM. For the same molecule, the TGI (CAKI-1 renal) was > 100 µM, the GI50 ([…]-0 renal) was > 100 µM and the TGI (786-0 renal) was > 100 µM. For the same molecule, the GI50 (SNB-19 CNS) was > 100 µM, the TGI (SNB-19 CNS) was > 100 µM and the GI50 (OVCAR-5 ovarian) was > 100 µM. The TGI (OVCAR-5 ovarian) was > 100 µM, the GI50 (NCI-H226 lung) was > 100 µM and the TGI (NCI-H226 lung) was > 100 µM. The GI50 (MDA-MB-435 melanoma) was > 100 µM, the TGI (MDA-MB-435 melanoma) was > 100 µM and the GI50 (SK-MEL-28 melanoma) was > 100 µM. The TGI (SK-MEL-28 melanoma) was > 100 µM, the GI50 (PC-3 prostate) was > 100 µM and the TGI (PC-3 prostate) was > 100 µM. For the same molecule, the GI50 (NCI-H23 lung) was > 100 µM, the TGI (NCI-H23 lung) was > 100 µM and the GI50 (T-47D breast) was 0.587 µM. For the same molecule, the TGI (T-47D breast) was > 100 µM, the GI50 (HOP-92 NSCLC) was > 100 µM and the TGI (HOP-92 NSCLC) was > 100 µM. For the same molecule, the GI50 (OVCAR-4 ovarian) was > 100 µM, the TGI (OVCAR-4 ovarian) was > 100 µM and the GI50 (A549 NSCLC) was > 100 µM. The TGI (A549 NSCLC) was > 100 µM, the GI50 (HT29 colon) was > 100 µM and the TGI (HT29 colon) was > 100 µM. For the same molecule, the GI50 (RPMI-8226 leukemia) was 0.908 µM, the TGI (RPMI-8226 leukemia) was > 100 µM and the GI50 (SF-268 CNS) was > 100 µM. For the same molecule, the TGI (SF-268 CNS) was > 100 µM, the GI50 (A498 renal) was > 100 µM and the TGI (A498 renal) was > 100 µM. For the same molecule, the GI50 (NCI-H322M lung) was > 100 µM, the TGI (NCI-H322M lung) was > 100 µM and the GI50 (SK-MEL-5 melanoma) was > 100 µM. The TGI (SK-MEL-5 melanoma) was > 100 µM, the GI50 (SN12C renal) was > 100 µM and the TGI (SN12C renal) was > 100 µM. For the same molecule, the GI50 (U251 glioblastoma) was > 100 µM and the TGI (U251 glioblastoma) was > 100 µM.
